Six compounds from ChEMBL document CHEMBL4425115, “Discovery and Structure-Activity Relationship (SAR) of a Series of Ethanolamine-Based Direct-Acting Agonists of Sphingosine-1-phosphate (S1P1)” (J Med Chem, 2016) can be followed below.

Series [1] is described as follows: Oral bioavailability in dog at 1 mg/kg. The format is ADME, organism-based, Canis lupus familiaris. The conditions noted are these: in vivo.
The nature of series [2]: Cmax in mouse plasma at 1 mg/kg, iv or 1 mg/kg, po. The format is ADME, organism-based.
Series [3] can be described thus: Metabolic stability in human liver microsomes assessed as compound remaining. Type of series: ADME, Microsome.
A short description of series [4]: AUC (0 to 24 hrs) in rat at 2 mg/kg, iv or 5 mg/kg, po. The format is ADME, organism-based. As to conditions: in vivo.
The nature of series [5]: AUC (0 to 24 hrs) in cynomolgus monkey at 1 mg/kg, iv or 1 mg/kg, po. The format is ADME, organism-based, Macaca fascicularis. As to conditions: in vivo.
A short description of series [6]: Volume of distribution at steady state in cynomolgus monkey at 1 mg/kg, iv or 1 mg/kg, po. As to conditions: in vivo. Type of series: ADME, organism-based, Macaca fascicularis.
Series [7] is described as follows: Tmax in dog at 1 mg/kg, iv or 1 mg/kg, po. The format is ADME, organism-based, Canis lupus familiaris. The conditions noted are these: in vivo.
A short description of series [8]: Oral bioavailability in cynomolgus monkey at 1 mg/kg. The format is ADME, organism-based, Macaca fascicularis. As to conditions: in vivo.
Series [9] in a line: Tmax in cynomolgus monkey at 1 mg/kg, iv or 1 mg/kg, po. Type of series: ADME, organism-based, Macaca fascicularis. As to conditions: in vivo.
Series [10] is described as follows: AUC (0 to 24 hrs) in mouse at 1 mg/kg, iv or 1 mg/kg, po. Type of series: ADME, organism-based. The conditions noted are these: in vivo.
Series [11] is described as follows: Clearance in dog at 1 mg/kg, iv. As to conditions: in vivo. The format is ADME, organism-based, Canis lupus familiaris.
A short description of series [12]: Cmax in rat plasma at 2 mg/kg, iv or 5 mg/kg, po. The format is ADME, organism-based.
Series [13] is described as follows: Cmax in cynomolgus monkey plasma at 1 mg/kg, iv or 1 mg/kg, po. Type of series: ADME, organism-based, Macaca fascicularis.
A short description of series [14]: Cmax in dog plasma at 1 mg/kg, iv or 1 mg/kg, po. Type of series: ADME, organism-based, Canis lupus familiaris.
Series [15] in a line: Metabolic stability in dog liver microsomes assessed as compound remaining. Type of series: ADME, Canis lupus familiaris, Microsome.
Series [16] can be described thus: Tmax in rat at 2 mg/kg, iv or 5 mg/kg, po. Type of series: ADME, organism-based. The conditions noted are these: in vivo.
The nature of series [17]: Clearance in rat at 2 mg/kg, iv. Type of series: ADME, organism-based. As to conditions: in vivo.
Series [18] can be described thus: Clearance in mouse at 1 mg/kg, iv. The conditions noted are these: in vivo. The format is ADME, organism-based.
Series [19] can be described thus: Half life in mouse at 1 mg/kg, iv. As to conditions: in vivo. The format is ADME, organism-based.
Series [20] is described as follows: Volume of distribution at steady state in dog at 1 mg/kg, iv or 1 mg/kg, po. Type of series: ADME, organism-based, Canis lupus familiaris. The conditions noted are these: in vivo.
A short description of series [21]: Metabolic stability in mouse liver microsomes assessed as compound remaining. The format is ADME, Microsome.
A short description of series [22]: Metabolic stability in rat liver microsomes assessed as compound remaining. Type of series: ADME, Microsome.
The nature of series [23]: Tmax in mouse at 1 mg/kg, iv or 1 mg/kg, po. The format is ADME, organism-based. As to conditions: in vivo.
Series [24] in a line: Half life in dog at 1 mg/kg, iv. Type of series: ADME, organism-based, Canis lupus familiaris. The conditions noted are these: in vivo.
Series [25] can be described thus: Half life in rat at 2 mg/kg, iv. Type of series: ADME, organism-based. As to conditions: in vivo.
Series [26] in a line: Volume of distribution at steady state in rat at 2 mg/kg, iv or 5 mg/kg, po. The format is ADME, organism-based. As to conditions: in vivo.
A short description of series [27]: Half life in cynomolgus monkey at 1 mg/kg, iv. The conditions noted are these: in vivo. The format is ADME, organism-based, Macaca fascicularis.
Series [28] is described as follows: Volume of distribution at steady state in mouse at 1 mg/kg, iv or 1 mg/kg, po. The format is ADME, organism-based. As to conditions: in vivo.
Series [29] can be described thus: Oral bioavailability in rat at 5 mg/kg. The format is ADME, organism-based. The conditions noted are these: in vivo.
Series [30] in a line: Clearance in cynomolgus monkey at 1 mg/kg, iv. The format is ADME, organism-based, Macaca fascicularis. The conditions noted are these: in vivo.
Series [31] in a line: Metabolic stability in cynomolgus monkey liver microsomes assessed as compound remaining. The format is ADME, Macaca fascicularis, Microsome.
Series [32] in a line: Oral bioavailability in mouse at 1 mg/kg. The conditions noted are these: in vivo. Type of series: ADME, organism-based.
A short description of series [33]: AUC (0 to 24 hrs) in dog at 1 mg/kg, iv or 1 mg/kg, po. The format is ADME, organism-based, Canis lupus familiaris. The conditions noted are these: in vivo.
Series [34] is described as follows: Plasma concentration in Lewis rat at 3 mg/kg, po measured after 24 hrs. Type of series: ADME, organism-based.
Series [35] in a line: Plasma concentration in Lewis rat at 3 mg/kg, po measured after 4 hrs. The format is ADME, organism-based.
Series [36] in a line: Permeability of the compound at pH 7.4 by PAMPA assay. Type of series: ADME. The conditions noted are these: read-out: permeability.
The nature of series [37]: Aqueous solubility of the compound at pH 1. The format is physicochemical.
Series [38] can be described thus: Volume of distribution at steady state in dog at 0.5 mg/kg, iv or 0.5 mg/kg, po. The format is ADME, organism-based, Canis lupus familiaris. The conditions noted are these: in vivo.
Series [39] in a line: AUC (0 to 24 hrs) in dog at 0.5 mg/kg, iv or 0.5 mg/kg, po. The format is ADME, organism-based, Canis lupus familiaris. The conditions noted are these: in vivo.
The nature of series [40]: Cmax in dog plasma at 0.5 mg/kg, iv or 0.5 mg/kg, po. The format is ADME, organism-based, Canis lupus familiaris.
The nature of series [41]: Lipophilicity, log D of the compound at pH 6.5. The format is physicochemical. As to conditions: buffer.
The nature of series [42]: Half life in dog at 0.5 mg/kg, iv. The format is ADME, organism-based, Canis lupus familiaris. As to conditions: in vivo.
A short description of series [43]: Oral bioavailability in dog at 0.5 mg/kg. Type of series: ADME, organism-based, Canis lupus familiaris. As to conditions: in vivo.
Series [44] is described as follows: Clearance in dog at 0.5 mg/kg, iv. Type of series: ADME, organism-based, Canis lupus familiaris. The conditions noted are these: in vivo.
Series [45] can be described thus: Dissociation constant, pKa of the compound. The format is physicochemical.
Series [46] in a line: Aqueous solubility of the compound at pH 6.5. Type of series: physicochemical.
Series [47] can be described thus: Tmax in dog at 0.5 mg/kg, iv or 0.5 mg/kg, po. The format is ADME, organism-based, Canis lupus familiaris. The conditions noted are these: in vivo.
A short description of series [48]: in vivo. As to conditions: Lewis, rat, plasma, po, 30 mg/kg.
Series [49] can be described thus: Plasma concentration in Lewis rat at 10 mg/kg, po measured after 24 hrs. The format is ADME, organism-based.
A short description of series [50]: Plasma concentration in Lewis rat at 10 mg/kg, po measured after 4 hrs. Type of series: ADME, organism-based.
Series [51] can be described thus: Half life in human administered as single dose. The format is ADME.

Converted amounts (≈) assume the structure as drawn. Where only a bound is given, the exact number is not on record here.

On to `O=C(O)[C@H]1CCCN(C[C@@H](O)c2ccc(-c3noc(-c4onc(-c5ccccc5)c4C(F)(F)F)n3)cc2)C1`, for which the bioavailability was found to be 74% in series [1], 88% in series [8], 76% in series [29] and 66% in [32]. Also, the Cmax in series [2] came to 45000 nM; in series [12], 5300 nM; in [13], 1100 nM; in series [14], 840 nM. Also, the Stability in series [3], in series [15], in series [21], in [22] and in [31] was > 98% each time. The AUC(0-t) in [4] was found to be 60 µM·h; in [5] it was 17 µM·h; in series [10], 362 µM·h; in series [33], 1.3 µM·h. Also, the Vdss in series [6] amounted to 1.8 L/kg; in series [20], 1.4 L/kg; in series [26], 1.2 L/kg; in [28], 0.1 L/kg. The Tmax in series [7] is 0.8 h; in [9] it was 4 h; in [16] it was 3.3 h; in series [23], 1 h. Besides, the CL in series [11] was determined as 1400 mL/min/kg; in series [17], 1700 mL/min/kg; in [18] it was 100 mL/min/kg; in [30] it was 700 mL/min/kg. Moreover, the t1/2 in series [19] was 15 h; in series [24], 12 h; in series [25] it was 9 h; in series [27], 33 h.

As to `CCCc1c(-c2nc(-c3ccc(C(O)CN4CCC[C@H](CC(=O)O)C4)cc3)no2)noc1-c1ccccc1` (some centres not stated), the concentration at 24 h in series [34] was 40 nM. The concentration at 4 h in [35] was determined as 685 nM.

As for `O=C(O)C[C@H]1CCCN(C[C@@H](O)c2ccc(-c3noc(-c4onc(-c5ccccc5)c4C(F)(F)F)n3)cc2)C1`, in [36], the Papp came out at 29.5 ×10⁻⁶ cm/s. In addition, the Cmax in [2] worked out at 44000 nM; in series [40], 489000 nM; in [12] it was 4700 nM; in series [13] it was 1500 nM. Moreover, the figures for the solubility in [37] and in [46] were > 850 µg/mL and 229 µg/mL (≈ 422 µM), respectively. Further, the Vdss amounted to 1.8 L/kg in [38], 1.1 L/kg in series [6], 2.2 L/kg in [26] and 0.2 L/kg in [28]. For the same compound, the Stability in [3], in [15], in [21], in [22] and in series [31] was > 98% in each case. The AUC(0-t) amounted to 66 µM·h in [4], 26 µM·h in [5], 7.8 µM·h in series [39] and 315 µM·h in series [10]. Besides, the bioavailability stood at 90% in [8], 90% in series [43], 87% in series [29] and 62% in series [32]. In addition, the Tmax in series [9] was 10 h; in series [16], 3.7 h; in series [23] it was 0.5 h; in [47] it was 4 h. For the same compound, the pH-dependent lipophilicity (logD) in series [41] is 3.94. The CL in series [17] is 1000 mL/min/kg; in series [18], 100 mL/min/kg; in series [44] it was 1300 mL/min/kg; in [30], 500 mL/min/kg. The t1/2 in series [42] was 24 h; in series [19], 23 h; in series [25] it was 28 h; in series [27], 27 h. This compound also displayed a pKa in series [45] of 8.8.

In turn, `CCCc1c(-c2nc(-c3ccc(C(O)CNCCC(=O)O)cc3)no2)noc1-c1ccccc1` (configuration not stated) came in with a concentration at 4 h in [48] of 142 nM.

Compound `CCCc1c(-c2nc(-c3ccc(C(O)CN4CCC[C@H](C(=O)O)C4)cc3)no2)noc1-c1ccccc1` (some centres not stated) came in with a concentration at 24 h in series [49] of 38 nM. This compound also had a concentration at 4 h in [50] of 1600 nM.

In turn, `CCCCCCCCc1ccc(CCC(N)(CO)CO)cc1` [FINGOLIMOD] displayed a half-life in series [51] of 144 to 216 h.
